Source: ChEMBL document CHEMBL1201862, “PubChem BioAssay data set” (2004)
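Dose response: 5 concentrations. Exposure: 48 h. Format: 96-well plates. Endpoint: linear interpolation; highest concentration if not reached. GI50 = concentration required for 50% inhibition of growth.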 The source made the active and inactive calls. Cut-off read from the data, not from the text of the source: active = GI50 up to about 1.1 µM and inactive = higher.

Key:
Assay in all cases: NCI anticancer screen, dose series, 48 h
[1] = system: HCT-116
[2] = system: SF-268
[3] = system: NCI-H226
[4] = system: A549
[5] = system: SN12C
[6] = system: HCC 2998
[7] = system: COLO 205
[8] = system: HOP-92
[9] = system: EKVX
[10] = system: NCI-H522
[11] = system: HOP-62
[12] = system: SNB-78
[13] = system: TK-10
[14] = system: OVCAR-4
[15] = system: SK-MEL-5
[16] = system: UACC-257
[17] = system: HL-60
[18] = system: U-251
[19] = system: DLD-1
[20] = system: IGROV-1
[21] = system: SNB-75
[22] = system: UO-31
[23] = system: 786-0
[24] = system: NCI-H23
[25] = system: Malme-3M
[26] = system: CAKI-1
[27] = system: SF-539
[28] = system: NCI-H460
[29] = system: SW-620
[30] = system: SK-OV-3
[31] = system: M14
[32] = system: SF-295
[33] = system: RPMI-8226
[34] = system: KM-20L2
[35] = system: MOLT-4
[36] = system: SR
[37] = system: SNB-19
[38] = system: OVCAR-3
[39] = system: HCT-15
[40] = system: UACC-62
[41] = system: K562
[42] = system: OVCAR-8
[43] = system: XF498
[44] = system: DMS-114
[45] = system: M19-MEL
[46] = system: OVCAR-5
[47] = system: DMS-273
[48] = system: RXF 631
[49] = system: LOX IMVI
[50] = system: A498
[51] = system: HOP-18
[52] = system: HT-29
[53] = system: RXF 393
[54] = system: CCRF-CEM
[55] = system: LXFL 529
[56] = system: KM12
[57] = system: SK-MEL-28
[58] = system: ACHN
[59] = system: SK-MEL-2

Measured: GI50

COC(=O)C(=O)OC1(C(C)=O)CC2(c3ccccc3)OC1(c1ccccc1)c1ccccc12 (centres undefined)
inactive: [1] 16.2 µM | [2] 20 µM | [3] 17.3 µM | [4] 14.8 µM | [5] 15 µM | [6] 16.7 µM | [7] 15.8 µM | [8] 14 µM | [9] 20.7 µM | [10] 17.7 µM | [11] 18.4 µM | [12] 27.8 µM | [13] 29.4 µM | [14] 20.2 µM | [15] 15 µM | [16] 16.2 µM | [17] 33.5 µM | [18] 16.4 µM | [19] 18.6 µM | [20] 16.3 µM | [21] 32.7 µM | [22] 14.2 µM | [23] 13.5 µM | [24] 17.2 µM | [25] 19.1 µM | [26] 17.9 µM | [27] 13 µM | [28] 18.4 µM | [29] 16.4 µM | [30] 29.9 µM | [31] 17.9 µM | [32] 14.5 µM | [33] 20.8 µM | [34] 15.6 µM | [35] 22 µM | [36] 28.1 µM | [37] 19.9 µM | [38] 13.9 µM | [40] 14.9 µM | [41] 27.7 µM | [42] 15.9 µM | [43] 16.4 µM | [44] 15.1 µM | [45] 16.9 µM | [46] 26.1 µM | [47] 15.2 µM | [48] 23.1 µM | [49] 15.7 µM | [50] 18.6 µM | [51] 52.8 µM | [52] 17 µM | [53] 15.4 µM | [54] 33.6 µM | [55] 19.8 µM
16.9 µM: [39]

C=CC1(c2ccccc2Cl)N/C(=C/OCC)CO1 (centres undefined)
inactive: [1] 90.2 µM | [2] > 100 µM | [3] > 100 µM | [4] 38.2 µM | [5] > 100 µM | [6] > 100 µM | [7] 88.3 µM | [8] > 100 µM | [9] > 100 µM | [10] > 100 µM | [11] > 100 µM | [12] > 100 µM | [13] > 100 µM | [14] > 100 µM | [15] > 100 µM | [56] > 100 µM | [16] > 100 µM | [17] 47.9 µM | [57] > 100 µM | [18] > 100 µM | [19] 33.5 µM | [20] > 100 µM | [21] 36.6 µM | [22] > 100 µM | [23] 51.5 µM | [24] > 100 µM | [25] > 100 µM | [26] > 100 µM | [58] > 100 µM | [27] > 100 µM | [28] > 100 µM | [29] 13.2 µM | [30] > 100 µM | [31] > 100 µM | [32] > 100 µM | [33] 24.7 µM | [34] > 100 µM | [35] > 100 µM | [36] > 100 µM | [37] > 100 µM | [38] > 100 µM | [59] > 100 µM | [40] > 100 µM | [41] > 100 µM | [42] > 100 µM | [43] > 100 µM | [44] > 100 µM | [45] > 100 µM | [46] > 100 µM | [47] > 100 µM | [48] > 100 µM | [49] 23.5 µM | [50] > 100 µM | [51] > 100 µM | [52] > 100 µM | [53] 10.3 µM | [54] > 100 µM | [55] > 100 µM
> 100 µM: [39]
